PubChem BioAssay AID2060895 (Molecular Pharmacology Branch, DTP, NCI, 2025)

Tested on: PDC 899932-113-R3-J6 complex spheroid viability
Assay: Anticancer human tumor 899932-113-R3-J6-PDC patient-derived melanoma cell line growth inhibition [RAS]
Conditions: for IC50: curve of first compound; for viability, T/C: stronger effect = lower value
In short: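 Agents were tested in combination matrices in half-log decrements from a top concentration at or near clinical Cmax (10 microM if undetermined). Targets were multi-cell spheroids of tumour lines plus HUVEC and MSC stromal cells.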

[1] = second compound 0.0316 µM, first compound 0.0316 µM
[2] = second compound 0.0316 µM, first compound 0.1 µM
[3] = second compound 0.0316 µM, first compound 0.316 µM
[4] = second compound 0.0316 µM, first compound 1 µM
[5] = second compound 0.0316 µM, first compound 3.16 µM
[6] = second compound 0.0316 µM, first compound 10 µM
[7] = second compound 0.1 µM, first compound 0.0316 µM
[8] = second compound 0.1 µM, first compound 0.1 µM
[9] = second compound 0.1 µM, first compound 0.316 µM
[10] = second compound 0.1 µM, first compound 1 µM
[11] = second compound 0.1 µM, first compound 3.16 µM
[12] = second compound 0.1 µM, first compound 10 µM
[13] = second compound 0.316 µM, first compound 0.0316 µM
[14] = second compound 0.316 µM, first compound 0.1 µM
[15] = second compound 0.316 µM, first compound 0.316 µM
[16] = second compound 0.316 µM, first compound 1 µM
[17] = second compound 0.316 µM, first compound 3.16 µM
[18] = second compound 0.316 µM, first compound 10 µM
[19] = second compound 1 µM, first compound 0.0316 µM
[20] = second compound 1 µM, first compound 0.1 µM
[21] = second compound 1 µM, first compound 0.316 µM
[22] = second compound 1 µM, first compound 1 µM
[23] = second compound 1 µM, first compound 3.16 µM
[24] = second compound 1 µM, first compound 10 µM
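Throughout, for viability, T/C: spheroids exposed to agents for seven days before readout; 100% = DMSO vehicle control wells.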

Work on CCc1c2c(nc3ccc(O)cc13)-c1cc3c(c(=O)n1C2)COC(=O)[C@]3(O)CC + C#Cc1c(F)ccc2cc(O)cc(-c3ncc4c(N5CC6CCC(C5)N6)nc(OCC56CCCN5CC(F)C6)nc4c3F)c12 yielded an IC50 (second compound 0.0316 µM) of 0.0118 µM, an IC50 (second compound 0.1 µM) of 0.0208 µM and an IC50 (second compound 0.316 µM) of 0.0366 µM. It also gave an IC50 (second compound 1 µM) of 0.0371 µM, an IC50 (second compound 3.16 µM) of 0.0331 µM and an IC50 (second compound 10 µM) of 0.0322 µM. For the same compound, the viability, T/C (second compound 0.0316 µM, first compound 0.000949 µM) was 108%, the viability, T/C (second compound 0.0316 µM, first compound 0.003 µM) was 63.5% and the viability, T/C (second compound 0.0316 µM, first compound 0.00949 µM) was 56.8%. For the same compound, the viability, T/C (second compound 0.0316 µM, first compound 0.03 µM) was 45.1%, the viability, T/C (second compound 0.0316 µM, first compound 0.0949 µM) was 41.5% and the viability, T/C (second compound 0.0316 µM, first compound 0.3 µM) was 34.2%. The viability, T/C (second compound 0.1 µM, first compound 0.000949 µM) was 85.7%, the viability, T/C (second compound 0.1 µM, first compound 0.003 µM) was 69.6% and the viability, T/C (second compound 0.1 µM, first compound 0.00949 µM) was 50.6%. For the same compound, the viability, T/C (second compound 0.1 µM, first compound 0.03 µM) was 50.2%, the viability, T/C (second compound 0.1 µM, first compound 0.0949 µM) was 44.5% and the viability, T/C (second compound 0.1 µM, first compound 0.3 µM) was 33.2%. It also gave a viability, T/C (second compound 0.316 µM, first compound 0.000949 µM) of 81.2%, a viability, T/C (second compound 0.316 µM, first compound 0.003 µM) of 74.3% and a viability, T/C (second compound 0.316 µM, first compound 0.00949 µM) of 54%. For the same compound, the viability, T/C (second compound 0.316 µM, first compound 0.03 µM) was 54%, the viability, T/C (second compound 0.316 µM, first compound 0.0949 µM) was 42.6% and the viability, T/C (second compound 0.316 µM, first compound 0.3 µM) was 35.2%. For the same compound, the viability, T/C (second compound 1 µM, first compound 0.000949 µM) was 91.7%, the viability, T/C (second compound 1 µM, first compound 0.003 µM) was 74% and the viability, T/C (second compound 1 µM, first compound 0.00949 µM) was 63%. It also gave a viability, T/C (second compound 1 µM, first compound 0.03 µM) of 52.2%, a viability, T/C (second compound 1 µM, first compound 0.0949 µM) of 43.3% and a viability, T/C (second compound 1 µM, first compound 0.3 µM) of 32.2%. It also gave a viability, T/C (second compound 3.16 µM, first compound 0.000949 µM) of 99%, a viability, T/C (second compound 3.16 µM, first compound 0.003 µM) of 74.5% and a viability, T/C (second compound 3.16 µM, first compound 0.00949 µM) of 60%. The viability, T/C (second compound 3.16 µM, first compound 0.03 µM) was 54.2%, the viability, T/C (second compound 3.16 µM, first compound 0.0949 µM) was 44.9% and the viability, T/C (second compound 3.16 µM, first compound 0.3 µM) was 33.5%. The viability, T/C (second compound 10 µM, first compound 0.000949 µM) was 101%, the viability, T/C (second compound 10 µM, first compound 0.003 µM) was 71% and the viability, T/C (second compound 10 µM, first compound 0.00949 µM) was 66.8%. The viability, T/C (second compound 10 µM, first compound 0.03 µM) was 47.3%, the viability, T/C (second compound 10 µM, first compound 0.0949 µM) was 47.9% and the viability, T/C (second compound 10 µM, first compound 0.3 µM) was 33.9%.

In the case of Cc1nc(N2CCC3(CC2)COC(C)C3N)c(CO)nc1Sc1ccnc(N)c1Cl (stereo unspecified) + C#Cc1c(F)ccc2cc(O)cc(-c3ncc4c(N5CC6CCC(C5)N6)nc(OCC56CCCN5CC(F)C6)nc4c3F)c12, the IC50 (second compound 0.0316 µM) is reported as over 10 µM, the IC50 (second compound 0.1 µM) is reported as over 10 µM and the IC50 (second compound 0.316 µM) is reported as over 10 µM. For the same compound, the IC50 (second compound 1 µM) was over 10 µM, the IC50 (second compound 3.16 µM) was over 10 µM and the IC50 (second compound 10 µM) was over 10 µM. The viability, T/C [1] was 98.1%, the viability, T/C [2] was 104% and the viability, T/C [3] was 108%. The viability, T/C [4] was 104%, the viability, T/C [5] was 118% and the viability, T/C [6] was 119%. For the same compound, the viability, T/C [7] was 99.3%, the viability, T/C [8] was 99.1% and the viability, T/C [9] was 107%. It also gave a viability, T/C [10] of 103%, a viability, T/C [11] of 114% and a viability, T/C [12] of 123%. It also gave a viability, T/C [13] of 111%, a viability, T/C [14] of 101% and a viability, T/C [15] of 96.3%. For the same compound, the viability, T/C [16] was 118%, the viability, T/C [17] was 117% and the viability, T/C [18] was 119%. For the same compound, the viability, T/C [19] was 106%, the viability, T/C [20] was 109% and the viability, T/C [21] was 108%. For the same compound, the viability, T/C [22] was 113%, the viability, T/C [23] was 116% and the viability, T/C [24] was 122%. For the same compound, the viability, T/C (second compound 3.16 µM, first compound 0.0316 µM) was 126%, the viability, T/C (second compound 3.16 µM, first compound 0.1 µM) was 110% and the viability, T/C (second compound 3.16 µM, first compound 0.316 µM) was 108%. The viability, T/C (second compound 3.16 µM, first compound 1 µM) was 112%, the viability, T/C (second compound 3.16 µM, first compound 3.16 µM) was 122% and the viability, T/C (second compound 3.16 µM, first compound 10 µM) was 121%. For the same compound, the viability, T/C (second compound 10 µM, first compound 0.0316 µM) was 106%, the viability, T/C (second compound 10 µM, first compound 0.1 µM) was 111% and the viability, T/C (second compound 10 µM, first compound 0.316 µM) was 112%. It also gave a viability, T/C (second compound 10 µM, first compound 1 µM) of 123%, a viability, T/C (second compound 10 µM, first compound 3.16 µM) of 113% and a viability, T/C (second compound 10 µM, first compound 10 µM) of 123%.

With NC1c2ccccc2OC12CCN(c1cnc3c(N4CCCc5ncccc54)n[nH]c3n1)CC2 (stereo unspecified) + C=CC(=O)N1CCN(c2nc(OCC3CCCN3C)nc3c(F)c(-c4nc(N)cc(C)c4C(F)(F)F)c(Cl)cc23)C(C)C1 the IC50 (second compound 0.00316 µM) was over 10 µM, the IC50 (second compound 0.01 µM) was over 10 µM and the IC50 (second compound 0.0316 µM) was over 10 µM. It also gave an IC50 (second compound 0.1 µM) of over 10 µM, an IC50 (second compound 0.316 µM) of over 10 µM and an IC50 (second compound 1 µM) of over 10 µM. For the same compound, the viability, T/C (second compound 0.00316 µM, first compound 0.0316 µM) was 113%, the viability, T/C (second compound 0.00316 µM, first compound 0.1 µM) was 107% and the viability, T/C (second compound 0.00316 µM, first compound 0.316 µM) was 114%. For the same compound, the viability, T/C (second compound 0.00316 µM, first compound 1 µM) was 113%, the viability, T/C (second compound 0.00316 µM, first compound 3.16 µM) was 108% and the viability, T/C (second compound 0.00316 µM, first compound 10 µM) was 89.9%. For the same compound, the viability, T/C (second compound 0.01 µM, first compound 0.0316 µM) was 108%, the viability, T/C (second compound 0.01 µM, first compound 0.1 µM) was 104% and the viability, T/C (second compound 0.01 µM, first compound 0.316 µM) was 115%. For the same compound, the viability, T/C (second compound 0.01 µM, first compound 1 µM) was 102%, the viability, T/C (second compound 0.01 µM, first compound 3.16 µM) was 115% and the viability, T/C (second compound 0.01 µM, first compound 10 µM) was 106%. It also gave a viability, T/C [1] of 116%, a viability, T/C [2] of 107% and a viability, T/C [3] of 115%. The viability, T/C [4] was 125%, the viability, T/C [5] was 121% and the viability, T/C [6] was 99.7%. The viability, T/C [7] was 107%, the viability, T/C [8] was 106% and the viability, T/C [9] was 114%. For the same compound, the viability, T/C [10] was 114%, the viability, T/C [11] was 102% and the viability, T/C [12] was 104%. The viability, T/C [13] was 110%, the viability, T/C [14] was 116% and the viability, T/C [15] was 112%. For the same compound, the viability, T/C [16] was 111%, the viability, T/C [17] was 115% and the viability, T/C [18] was 97.1%. For the same compound, the viability, T/C [19] was 114%, the viability, T/C [20] was 105% and the viability, T/C [21] was 119%. It also gave a viability, T/C [22] of 113%, a viability, T/C [23] of 112% and a viability, T/C [24] of 86.1%.
